Experiments:
[1] = tested on: P. falciparum synchronized cultures; test: Parasite stage-specific inhibitory effects and reversibility (Giemsa-stained smears); assay type: cell-based, Plasmodium falciparum; settings: for recovery of parasite growth after drug removal: drug removed after 11 hours
Protocol: Synchronized cultures (1–2% parasitemia) at the ring stage (0–10 hours old parasites), the trophozoite stage (25–35 hours old parasites) and the schizonte stage (40–48 hours old parasites) were maintained in the presence of drug concentrations in the vicinity of IC50 values. Aliquots were removed at the indicated times, washed three times with culture medium and maintained in culture in the absence or in the presence of a given drug. […] Parasitaemias were determined by counting 3,000 cells for each sample. Controls consisted of parasites incubated with DMSO instead of drugs processed in the same way.
To investigate the cytostatic or cytotoxic effects of AD2646 on the parasite development, cultures at the ring stage (0–10 hours), the trophozoite stage (25–35 hours) and the schizonte stage (40–48 hours) were incubated with 30, 100 or 250 nM of AD2646 for 24.5 hours for the ring stage, for 11 hours for the trophozoite stage, and for 14 hours for the schizonte stage. Aliquots were then taken, washed and incubated in the absence or the presence of drug for a further 13 hours to 24 hours depending upon the parasite stage tested (see Figure 5). Parasitaemia and parasite stages were determined on Giemsa-stained smears at time of aliquot removal and after the subsequent incubation.

[2] = tested on: tubovesicular network of P. falciparum; test: Tubovesicular network formation, BODIPY-FL-C5-ceramide fluorescence microscopy; assay type: cell-based, Plasmodium falciparum
Protocol: Infected erythrocytes treated with or without ceramide analogs were incubated for 30 min, at 37°C, in culture medium containing 10 μM BODIPY-FL-C5-ceramide, washed three times with culture medium without serum and fixed overnight, at 4°C, in 3.7% formaldehyde/0.05% glutaraldehyde. Cells were mounted on poly-L-lysine coated slides and viewed using a Nikon Eclipse TE 300 DV inverted microscope with an 100X oil objective mounted on a piezzo electric device using appropriate fluorescence emission filters. Image acquisition (z-series) was performed with a back illuminated cooled detector (CCD EEV: NTE/CCD-1024-EB, Roper Scientific, France) using a 0.2 μm step. Data acquisition and image deconvolution process were performed with Metamorph software (Universal Imaging Corporation, Roper Scientific, France). The images presented correspond to the maximum intensity projection of the deconvoluted z-series.

P. falciparum strain W2 = test: Anti-Plasmodium activity, strain W2; assay type: cell-based
Protocol: P. falciparum strains (FcB1/Colombia, K1/Thailand, F32/Tanzania, W2/Indochina) were maintained in continuous culture on human erythrocytes in RPMI medium containing 7% (v/v) heat-inactivated human serum under an atmosphere of 3% CO2, 6% O2, 91% N2, at 37°C, as described by Trager and Jensen. Parasite synchronization was performed successively by treatment with 5% (w/v) sorbitol and by concentration in gelatin solution as previously described.
Drug susceptibility assays were performed using a modification of the semi automated microdilution technique of Desjardins et al.. Stock solutions of test compounds were prepared in DMSO. Drug solutions were serially diluted twofold with 100 μl culture medium in 96-well plates. Asynchronous parasite cultures (100 μl, 1 % parasitemia and 1 % final hematocrite) were added to each well and incubated for 24 hours at 37°C prior to the addition of 0.5 μCi of [^3H] hypoxanthine (Amersham, France, 1 to 5 Ci.mmol/ml) per well. After a further incubation of 24 hour, plates were frozen and thawed. Cell lysates were then collected onto glass-filter papers and counted in a liquid scintillation spectrometer. The growth inhibition for each drug concentration was determined by comparison of the radioactivity incorporated in the treated culture with that in the control culture (having the same final % of DMSO) maintained on the same plate. […]

human MRC-5 cells = test: Cytotoxicity test upon human embryonic cells (MTT); assay type: cell-based
Protocol: (§1) A human diploid embryonic lung cell line (MRC-5, Bio-Whittaker 72211D) was used to assess the cytotoxic effects towards eukaryotic host cells. MRC-5 cells were seeded at 5,000 cells per well in 100 μl. After 24 hours, the cells were washed and two-fold dilutions of the drug were added in 200 μl standard culture medium (RPMI medium + 5% fetal calf serum) and maintained for five days under 5% CO2 atmosphere. The final DMSO concentration in the culture remained below 0.1%. Untreated cultures were included as controls. The cytotoxicity was determined using the colorimetric MTT assay according to the manufacturer's recommendations (Cell proliferation kit I, Roche Applied Science, France) and scored as a percentage of reduction in absorption at 540 nm of treated cultures versus untreated control cultures. […] The results were expressed as the mean ± the standard deviations determined from several independent experiments. The index of selectivity was defined as the ratio of the IC50 value on MRC-5 to that of P. falciparum.

[3] = Cytotoxicity test upon human embryonic cells (MTT); assay type: cell-based; settings: human, MRC-5 human diploid embryonic lung cells; MRC-5, five days, MTT; mean of three experiments
Protocol: as §1

[4] = tested on: malaria-induced anion channel; test: Malaria-induced anion channel activity, whole-cell patch-clamp; assay type: cell-based, Plasmodium falciparum; settings: infected erythrocytes, 24 hours, 250 nM AD2646 or 10 μM PPMP, whole-cell patch-clamp (unpublished data)
Description: Sphingolipids preferentially interact with cholesterol in membranes, especially in detergent-resistant microdomains (DRMs or rafts). Rafts have been described in Plasmodium and are involved, at least, in the uptake of erythrocyte raft proteins and maintenance of the parasitophorous vacuole containing the parasite, inside the erythrocyte. This interaction implies : 1) van der Waals interactions between the saturated acyl chain and sphingoid moiety of sphingolipids and the rigid planar tetracyclic rings of cholesterol and 2) hydrogen bonds between the 3-β hydroxyl group of cholesterol and the fatty acyl carbonyl group resulting from the amide linkage with the sphingoid moiety. The amide-linked fatty acid function seems to have a profound stabilizing effect on cholesterol-sphingolipid interactions. It could be hypothesized that in a membrane context, methylene analogs might have a destabilizing effect on the cholesterol-sphingolipid interactions and, in consequence, modifications of membrane properties. Indeed, P. falciparum growth is characterized by a setting up of new permeabilities of the infected-erythrocyte membrane. Although the biochemical nature of these new permeabilities is still unknown, they have been characterized from an electrophysiological point of view and involve a malaria-induced anion channel. […]

erythrocytes = test: Lysis of normal and infected erythrocytes; assay type: cell-based, human; settings: 250 nM, 48 hours
Protocol: By their lipidic nature, these analogs might act through a detergent effect that could lead to lysis or modification of the integrity of infected-erythrocyte membranes. This apparently is not the case. No significant lysis of normal erythrocytes was observed after 48 hous of incubation with concentrations of analogs up to 10 μM (data not shown).

CCCCCCCCCCCCCCN[C@H](CO)[C@H](O)c1ccc([N+](=O)[O-])cc1 [AD2646]
parasite growth from the ring stage ([1]; ring stage, 100 and 250 nM, no recovery after drug removal at 24 hours): irreversibly blocked at the young trophozoite stage | development of the ring stage ([1]; ring stage, continuous incubation with 30 nM): slightly affected | development of the schizont stage ([1]; schizont stage, 30 nM): a slight effect was only observed | parasite growth from the schizont stage ([1]; schizont stage, 100 nM): irreversibly blocked | recovery of parasite growth after drug removal ([1]; trophozoite stage, 30 nM): Only a partial recovery of parasite growth | recovery of parasite growth after drug removal ([1]; trophozoite stage, 100 nM): No recovery of parasite growth | development of the trophozoite stage ([1]; trophozoite stage, continuous incubation with 30 nM): completely blocked development | parasite development ([2]; 60 nM): blocks irreversibly the parasite development | TVN formation ([2]; rings incubated 24 hours with 60 nM AD2646 or 5 μM PPMP): TVN was distinctly observed | IC50 (P. falciparum strain W2): 0.028 µM | IC50 (human MRC-5 cells; Homo sapiens, MRC5, 120 h, MRC-5, five days, MTT, mean of three experiments): 4.9 µM | Index of selectivity (human MRC-5 cells; ratio of the IC50 value on MRC-5 cells to that on P. falciparum): 160 | IC90 at 5 days [3]: 7.5 µM | induced anion channel activity [4]: did not modulate significantly the induced channel activity | parasite growth (erythrocytes): inhibiting parasite growth totally | lysis of infected erythrocytes (erythrocytes; infected cultures, Giemsa-stained smears): no preferential lysis of infected-erythrocytes
